The text below walks through data of patent US7659308B2, “Concentricolide and its derivatives, process for preparing them, pharmaceutical composition comprising the same and its use” (Kunming Institute of Botany, The Chinese Academy of Sciences, priority 2003, dated 2010).

Values after ≈ are worked out from the molar mass of the structure shown.

Holding throughout (format): cell-based
One series concerns HIV-1IIIB. The series is described as follows: Cytopathic effect (CPE) inhibition assay on HIV-1 infected C8166 cells. On the procedure:
To 100 μl of a culture medium containing corresponding concentration of concentricolide A from example 1 were added C8166 cells (4×10^5/ml) and HIV-1IIIB at a multiplicity of infection (M.O.I) of 0.06. The final volume was 200 μl. AZT was used as positive drug control. The plates were incubated in a humidified incubator at 37° C. and 5% CO2. After 3 days of culture, the cytopathic effect was measured by counting the number of syncytia in each well under an inverted microscope. EC50 (50% Effective Concentration) was the compound concentration inhibiting 50% of syncytia formation. The cytopathic effect (CPE) inhibition %=(1-number of syncytiaexp/number of syncytiacontrol)×100.
(In general: Cytopathic effects are the visible damage that an infection or toxin causes in cultured cells.)

In a further series the test system is C8166 cells. The series is described as follows: Cytotoxicity on C8166 cells (MTT colorimetric assay). To be noted: 72 h. On the procedure: (§1) C8166 was one of the host cells for HIV-1. 100 μl of 4×10^5/ml cells were seeded on microtiter plate, 100 μl of various concentrations of concentricolide were added and incubated at 37° C. in a humidified atmosphere of 5% CO2 for 72 h. The cellular toxicity was assessed by MTT calorimetric assay. The plates were read on Bio-Tek ELx 800 ELISA reader at 595/630 nm (OD595/630 nm). 50% cytotoxic concentration (CC50) was calculated as follows: Cell viability %=(ODexp−ODblank)/(ODcontrol−ODblank)×100.
Background: Tetrazolium assays rely on reduction of a dye to a coloured formazan, in cell work by metabolically active cells.

Assay in series [1]: as above
The conditions noted are these: human, read-out: CC50 (50% cytotoxic concentration). The procedure: as §1

Series [2] concerns binding and fusion between HIV-1 and cells. The series is described as follows: microbe, parasite or virus in culture. To be noted: C8166 + HIV-1 chronically infected H9 cells, 24 h, syncytia formation. The text has this: When HIV infected cells were co-cultured with normal T lymphocyte cells, the exterior envelope glycoprotein gp120 expressed on infected cells was bound to the cellular CD4 receptor of the uninfected CD4^+ cells, following fusion of cells and formation of syncytia. Compounds target to this site would inhibit the syncytia formation. Thus, this method could be used to detect whether the compounds have effect on binding and fusion between virus and host cell. Concentricolide A in example 1 was diluted by five fold on 96-well microtiter plate, 3 repeated wells in each gradient, 100 μl per well. Negative control well free of compounds and T-20 positive control well were set up. Then, 50 μl of C8166 cells at logarithmic growth period (6×10^5/ml) and 50 μl of HIV-1 chronically infected H9 cells (2×10^5/ml) were added in each well. The plate was cultured in a humidified incubator at 37° C. and 5% CO2 for 24 h, and the syncytial formation was observed under microscope to deduce whether Concentricolide A blocks the fusion process of virus and cell .

Turning to `Cc1cn([C@H]2C[C@H](N=[N+]=[N-])[C@@H](CO)O2)c(=O)[nH]c1=O` [AZT, 3P-azido-3P-deoxythymidine, reference compound], in the series with HIV-1IIIB (C8166 cells, HIV-1IIIB M.O.I. 0.06, 3 days, syncytia count), the “EC50, inhibition of cytopathic effect (CPE) of HIV-1” value was 0.092 µg/mL. For the same compound, in the series on C8166 cells, the “CC50 (50% cytotoxic concentration)” value came out at 258.88 µg/mL (≈ 969 µM).

One may read the EC50 as the concentration giving half of the maximal effect. On to `CC[C@@H]1OC(=O)c2c1ccc1ccoc21` [concentricolide A], for which the concentration giving a half-maximal response (EC50) in the series with HIV-1IIIB (Human immunodeficiency virus 1, 72 h, C8166 cells, HIV-1IIIB M.O.I. 0.06, 3 days, syncytia count) was 0.31 µg/mL (≈ 1.53 µM); in series [2] (Human immunodeficiency virus 1, read-out: EC50, blockage of binding and fusion between HIV-1 and cells), 0.83 µg/mL. For the same compound, the “selected index (S.I.)” value in the series with HIV-1IIIB (against HIV-1 in vitro) worked out at 222. Also, the CC50 at 72 h in series [1] was found to be 76.7 µg/mL (≈ 379 µM).

Regarding enfuvirtide, in series [2] (positive control), the “EC50, blockage of fusion of HIV-1 infected cells” value is 0.00602 µg/mL.
